Assay results published in patent US20250163057A1, “DCN-1 MODULATING COMPOUNDS AND METHODS OF USE THEREOF” (Cellarity, Inc., priority 2023, published 2025).
Where two headings read alike, the source gives them in different places.

Experiments:
[1] = biological target: T1, DCN1 (DCUND1) protein PONY domain (Homo sapiens (Human), UniProt Q96GG9); experiment: TR-FRET assay, DCN1 binding with FAM-labeled probe
In short: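 First, the E. coli-derived PONY domain was biotinylated and paired with streptavidin Tb cryptate. Compounds in 0.1% DMSO were then added to DCN1 and FAM-probe (5 nM/20 nM, or 0.31 nM/900 nM total with 800 nM unlabelled) in TritonX, 200 mM NaCl buffer. Finally, TR-FRET ratios were recorded at 1, 5 and 24 hrs.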

DCN1 protein = DCN1 protein (Homo sapiens (Human), UniProt Q96GG9); experiment: Intact Protein MS Analysis with the RapidFire-TOF System (covalent adduct formation); type: binding; settings: MS Emax; 400 nM DCN1, 3 hours at room temperature
In short: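 Tag-cleaved human DCN1 (400 nM) expressed in E. coli, in 25 mM Tris-HCl, 200 mM NaCl, 1 mM DTT, was incubated with 11 compound concentrations for 3 h at room temperature and quenched with 0.2% formic acid. Intact-protein Q-TOF MS with deconvolution detected the compound adduct mass.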

[2] = biological target: T1, DCN1 (DCUND1) protein PONY domain; experiment: Off-rate measurement of reversible covalent molecules (jump dilution TR-FRET with Cy5 probe); type: binding; settings: for Category: binding mode category from off-rate assay; for residence time: inverse of rate constant K; for residence time / half-life: jump dilution TR-FRET; for koff: jump dilution, Cy5 covalent probe 150 nM, TR-FRET; for half-life: ln(2)/K
[3] = 24 hr after treatment with compound, read-out: TR FRET IC50 24 hr
[4] = read-out: TR FRET IC50 1 hr, 1 hr after treatment with compound

T1 sequence (Q96GG9 60-248): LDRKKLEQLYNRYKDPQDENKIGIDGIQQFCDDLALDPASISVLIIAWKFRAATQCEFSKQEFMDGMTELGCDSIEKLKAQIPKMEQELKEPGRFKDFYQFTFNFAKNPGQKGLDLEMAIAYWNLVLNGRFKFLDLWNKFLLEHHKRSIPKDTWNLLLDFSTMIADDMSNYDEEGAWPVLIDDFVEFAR
DCN1 protein, sequence (Q96GG9 whole entry): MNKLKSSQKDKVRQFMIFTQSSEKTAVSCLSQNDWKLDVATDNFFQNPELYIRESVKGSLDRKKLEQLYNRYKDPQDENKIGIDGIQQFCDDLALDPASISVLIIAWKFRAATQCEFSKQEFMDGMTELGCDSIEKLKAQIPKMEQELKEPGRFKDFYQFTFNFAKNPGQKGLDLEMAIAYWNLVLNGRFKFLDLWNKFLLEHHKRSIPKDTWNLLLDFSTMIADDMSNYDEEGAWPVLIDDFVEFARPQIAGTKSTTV

Structure (SMILES) | IC50 [1, 3] [nM] | IC50 [1, 4] [nM] | % Adduct Formation (DCN1 protein) | Category [2] | residence time [2] [min] | koff [2] [s⁻¹] | half-life [2] [h]
CCN1C(=O)[C@@H](NC(=O)c2cccc(C(F)(F)F)c2)[C@@H](C2CC2)c2c(C(=O)N3[C@H](C#N)C[C@H]4C[C@H]43)nn(C3CCOCC3)c21 [Compound I-256, N-((4S,5S)-3-((1R,3S,5R)-3-cyano-2-azabicyclo[3.1.0]hexane-2-carbonyl)-4-cyclopropyl-7-ethyl-6-oxo-1-(tetrahydro-2H-pyran-4-yl)-4,5,6,7-tetrahydro-1H-pyrazolo[3,4-b]pyridin-5-yl)-3-(trifluoromethyl)benzamide] | ≤ 200 | ≤ 200 | +++ (MS Emax % adduct formation greater than 80.0 and less than or equal to 100.0) | slow reversible | 219 | 7.96e-05 | 2.535
CCN1C(=O)[C@@H](NC(=O)c2cccc(C(F)(F)F)c2)[C@@H](c2ccc(F)cc2)c2c(C(=O)N3CCC[C@H]3C#N)nn(C3CCOCC3)c21 [Compound I-350] | ≤ 200 | ≤ 200 | ++ (MS Emax % adduct formation greater than 30.0 and less than or equal to 80.0) | slow reversible | 699 | 2.64e-05 | 8.07
CCN1C(=O)[C@@H](NC(=O)c2cccc(C(F)(F)F)c2)[C@@H](c2ccc(F)cc2)c2c(C(=O)N3CCNC[C@H]3C#N)nn(C3CCOCC3)c21 [Compound I-363, N-((4S,5S)-3-((S)-2-cyanopiperazine-1-carbonyl)-7-ethyl-4-(4-fluorophenyl)-6-oxo-1-(tetrahydro-2H-pyran-4-yl)-4,5,6,7-tetrahydro-1H-pyrazolo[3,4-b]pyridin-5-yl)-3-(trifluoromethyl)benzamide] | ≤ 200 | ≤ 200 | +++ (MS Emax % adduct formation greater than 80.0 and less than or equal to 100.0) | slow reversible |  |  | 
CCN1C(=O)[C@@H](NC(=O)c2cccc(C(F)(F)F)c2)[C@@H](c2ccc(F)cc2)c2c(C(=O)N(C)[C@@H](C#N)CCN(C)C)nn(C3CCOCC3)c21 [Compound I-369] | ≤ 200 | ≤ 200 | +++ (MS Emax % adduct formation greater than 80.0 and less than or equal to 100.0) | fast reversible | 39.4 | 0.000425 | 0.455
CCN1C(=O)[C@@H](NC(=O)c2cccc(C(F)(F)F)c2)[C@@H](c2ccc(F)cc2)c2c(C(=O)N(C)[C@H](C#N)CCN(C)C)nn(C3CCOCC3)c21 [Compound I-370] | ≤ 200 | ≤ 200 | +++ (MS Emax % adduct formation greater than 80.0 and less than or equal to 100.0) | fast reversible | 78.6 | 0.000212 | 0.908
CCN1C(=O)[C@@H](NC(=O)c2cccc(C(F)(F)F)c2)[C@@H](C2CC2)c2c(C(=O)N3CCNC[C@H]3C#N)nn(-c3ccccc3)c21 [Compound I-383] | ≤ 200 | ≤ 200 | +++ (MS Emax % adduct formation greater than 80.0 and less than or equal to 100.0) | irreversible covalent |  |  | 
